Laboratory results reported in ChEMBL document CHEMBL4145537, “Synthesis and biological evaluation of novel quinazoline-4-piperidinesulfamide derivatives as inhibitors of NPP1” (Eur J Med Chem, 2018).

Experiments:
[1] = target: T1, Ectonucleotide pyrophosphatase/phosphodiesterase family member 1 (Homo sapiens) (UniProt P22413); experiment: Inhibition of human GFP-fused NPP1 expressed in COS7 cells at 1 uM using pnp-TMP as substrate after 60 mins relative to control; format: cell-based
T1 sequence (whole entry): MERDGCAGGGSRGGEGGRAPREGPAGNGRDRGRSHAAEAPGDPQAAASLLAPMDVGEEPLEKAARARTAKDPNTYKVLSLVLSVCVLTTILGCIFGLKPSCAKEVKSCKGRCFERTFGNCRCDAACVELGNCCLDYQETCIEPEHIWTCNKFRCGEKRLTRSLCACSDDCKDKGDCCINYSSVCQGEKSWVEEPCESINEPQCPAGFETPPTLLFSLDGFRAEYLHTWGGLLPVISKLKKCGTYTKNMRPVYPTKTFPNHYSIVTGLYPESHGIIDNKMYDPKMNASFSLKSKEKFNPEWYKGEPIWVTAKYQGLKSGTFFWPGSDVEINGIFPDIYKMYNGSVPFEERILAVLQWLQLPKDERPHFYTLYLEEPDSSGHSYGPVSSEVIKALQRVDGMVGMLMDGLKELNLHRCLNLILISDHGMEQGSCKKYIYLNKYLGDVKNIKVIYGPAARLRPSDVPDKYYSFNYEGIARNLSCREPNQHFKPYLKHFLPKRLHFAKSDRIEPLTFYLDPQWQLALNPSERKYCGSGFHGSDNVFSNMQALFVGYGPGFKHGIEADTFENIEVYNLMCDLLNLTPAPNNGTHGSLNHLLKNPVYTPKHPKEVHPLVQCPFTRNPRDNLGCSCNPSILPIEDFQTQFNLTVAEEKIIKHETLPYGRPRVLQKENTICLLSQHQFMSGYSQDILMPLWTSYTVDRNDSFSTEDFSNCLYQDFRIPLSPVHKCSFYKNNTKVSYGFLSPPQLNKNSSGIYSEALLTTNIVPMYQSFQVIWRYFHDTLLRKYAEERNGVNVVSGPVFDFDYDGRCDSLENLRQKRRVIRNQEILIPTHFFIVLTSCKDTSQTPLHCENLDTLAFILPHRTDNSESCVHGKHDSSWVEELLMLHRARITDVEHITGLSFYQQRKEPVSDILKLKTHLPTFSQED

[2] = target: T2, Ectonucleotide pyrophosphatase/phosphodiesterase family member 1 (Homo sapiens, UniProt P22413); experiment: Inhibition of human GFP-fused NPP1 expressed in COS7 cells using pnp-TMP as substrate after 60 mins; format: cell-based
T2 sequence (P22413 whole entry): T1 sequence (whole entry)

Compound	inhibition [1]	Ki [2]
CCOc1cc2c(Cl)ncnc2cc1OC	48%	1310 nM
COc1cc2ncnc(N3CCC(CO)CC3)c2cc1OC	11%	–
COc1cc2ncnc(N3CCC(CCN)CC3)c2cc1OC	45%	699 nM
COC(=O)c1cccc(/C=C/c2nc(N3CCC(CCNS(N)(=O)=O)CC3)c3cc(OC)c(OC)cc3n2)c1	74%	297 nM
CCCCOc1cc2c(Cl)ncnc2cc1OC	< 1%	–
COc1cc2nc(/C=C/c3ccccn3)nc(N3CCC(CCNS(N)(=O)=O)CC3)c2cc1OC	85%	71 nM
COc1cc2nc(/C=C/c3cccc(F)c3)nc(N3CCC(CCNS(N)(=O)=O)CC3)c2cc1OC	14%	3580 nM
COc1cc2ncnc(Cl)c2cc1OC/C=C/S(F)(F)(F)(F)F	15%	7970 nM
CCOC(=O)C1CCN(c2ncnc3cc(OC)c(OC)cc23)CC1	12%	–
COc1cc2nc(CCc3ccc(F)cc3)nc(N3CCC(CCNS(N)(=O)=O)CC3)c2cc1OC	69%	366 nM
COc1cc2nc(/C=C/c3cccnc3)nc(N3CCC(CCNS(N)(=O)=O)CC3)c2cc1OC	86%	58 nM
COc1cc2ncnc(N3CCC(CC#N)CC3)c2cc1OC	< 1%	–
COc1cc2nc(/C=C/c3ccncc3)nc(N3CCC(CCNS(N)(=O)=O)CC3)c2cc1OC	79%	218 nM
COc1cc2nc(CC3OC(=O)c4ccccc43)nc(N3CCC(CCNS(N)(=O)=O)CC3)c2cc1OC (stereo not given)	79%	90 nM
COc1cc2ncnc(N3CCC(CCNS(N)(=O)=O)CC3)c2cc1OC	87%	–
COc1cc2nc(/C=C/c3ccc(F)cc3)nc(N3CCC(CCNS(N)(=O)=O)CC3)c2cc1OC	70%	465 nM
COC(=O)c1ccc(/C=C/c2nc(N3CCC(CCNS(N)(=O)=O)CC3)c3cc(OC)c(OC)cc3n2)cc1	43%	1340 nM
COc1cccc(/C=C/c2nc(N3CCC(CCNS(N)(=O)=O)CC3)c3cc(OC)c(OC)cc3n2)c1	88%	101 nM
COc1cc2ncnc(N3CCC(CCNS(C)(=O)=O)CC3)c2cc1OC	12%	–
COc1cc2nc(/C=C/c3ccccc3)nc(N3CCC(CCNS(N)(=O)=O)CC3)c2cc1OC	33%	1840 nM
COc1ccccc1/C=C/c1nc(N2CCC(CCNS(N)(=O)=O)CC2)c2cc(OC)c(OC)cc2n1	74%	302 nM
CCCOc1cc2c(Cl)ncnc2cc1OC	29%	3240 nM
COc1cc2nc(/C=C/c3ccccc3F)nc(N3CCC(CCNS(N)(=O)=O)CC3)c2cc1OC	78%	211 nM
COc1ccc2ncnc(N3CCC(CCNS(N)(=O)=O)CC3)c2c1	71%	242 nM
COc1ccc(/C=C/c2nc(N3CCC(CCNS(N)(=O)=O)CC3)c3cc(OC)c(OC)cc3n2)cc1	66%	231 nM
COc1cc2ncnc(N3CCC(CCNC(C)=O)CC3)c2cc1OC	9%	–
